“Also recorded” adds a separate entry of the source. Bridge positions count the residues as written; N and C are the ends. Ends that are not written are not given here.
Experiments:
lymphatic vessels [1] = conditions: ex vivo studies; cited from earlier work
lymphatic vessels [2] = assay: near-infrared (NIR) imaging of indocyanine green (ICG) transport after footpad injection; assay type: in vivo; conditions: mouse, sildenafil 12 mg/kg intraperitoneally, images taken 20 minutes after treatment, versus saline control
Protocol: To determine if phosphodiesterase (PDE) inhibitors were capable of increasing lymphatic transport, near-infrared (NIR) imaging of indocyanine green ICG) transport was used. ICG (20 μl of 0.1 mg ICG/ml water) was injected into the footpad Of the animal Where it is taken up by the lymphatic system. The extremity was illuminated with near infrared light (generated with a tungsten halogen source) resulting in near infrared fluorescence at a longer wavelength that was recorded with a near-infrared sensitive camera (Prosilica GC1380; Allied Vision Technologies; Stadtroda, Germany). Excitation and emission wavelengths were separated using Semrock filters (IDEX; Lake Forest, Ill.) from the ICG-A filter set. To determine if PDE inhibitors Were capable of increasing lymphatic transport, sildenafil (12 mg/kg), a PDE5 antagonist, was injected intraperitoneally with ICG into the footpad of a mouse. Saline was used a control.

Compound	lymphatic pulsing and/or flow (lymphatic vessels [1])	ICG uptake into lymphatic vessels / lymphatic system (lymphatic vessels [2])
CCCCC[C@H](O)/C=C/[C@@H]1[C@@H](C/C=C\CCCC(=O)O)[C@H]2CO[C@@H]1C2 [U46619]	increase lymphatic pulsing and/or flow	
O=S(=O)(O)c1cc(O)ccc1O [doxium]	increase lymphatic pulsing and/or flow	
NC[C@H](O)c1ccc(O)c(O)c1 [norepinephrine]	increase lymphatic pulsing and/or flow	
CCCc1nn(C)c2c(=O)[nH]c(-c3cc(S(=O)(=O)N4CCN(C)CC4)ccc3OCC)nc12 [sildenafil]		increases indocyanine green (ICG) uptake into lymphatic vessels; also recorded: increased ICG uptake into the lymphatic system
endothelin-1 (CSCSSLMDKECVYFCHLDIIW; disulfide 1-15, 3-11; ends not checked; UniProt P05305 53-73, looked up)	increase lymphatic pulsing and/or flow	
hyaluronidase	increase lymphatic pulsing and/or flow	
substance P (RPKPQQFFGLM-NH2; ends and bridges not checked; UniProt P20366 58-68, looked up)	increase lymphatic pulsing and/or flow	
